Source: ChEMBL document CHEMBL1201862, “PubChem BioAssay data set” (2004)
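In this assay, cells in 96-well plates receive the compound at five concentrations for 48 hours. Endpoints are linearly interpolated between the surrounding concentrations. At the GI50, growth is halved.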 Active and inactive are the calls of the source. No stated cut-off is given here; in the data, active = GI50 up to about 1.1 µM and inactive = higher.

Experiments:
Assay in all cases: inhibition of tumour cell growth, NCI panel, 48 h
OVCAR-3 = tested on: OVCAR-3
KM12 = tested on: KM12
CAKI-1 = tested on: CAKI-1
A549 = tested on: A549
NCI-H522 = tested on: NCI-H522
HL-60 = tested on: HL-60
SR = tested on: SR
CCRF-CEM = tested on: CCRF-CEM
SK-OV-3 = tested on: SK-OV-3
SNB-75 = tested on: SNB-75
UO-31 = tested on: UO-31
U-251 = tested on: U-251
OVCAR-8 = tested on: OVCAR-8
SW-620 = tested on: SW-620
COLO 205 = tested on: COLO 205
SNB-19 = tested on: SNB-19
SK-MEL-5 = tested on: SK-MEL-5
LOX IMVI = tested on: LOX IMVI
K562 = tested on: K562
HT-29 = tested on: HT-29

SMILES	GI50 (OVCAR-3)	GI50 (KM12)	GI50 (CAKI-1)	GI50 (A549)	GI50 (NCI-H522)	GI50 (HL-60)	GI50 (SR)	GI50 (CCRF-CEM)	GI50 (SK-OV-3)	GI50 (SNB-75)	GI50 (UO-31)	GI50 (U-251)	GI50 (OVCAR-8)	GI50 (SW-620)	GI50 (COLO 205)	GI50 (SNB-19)	GI50 (SK-MEL-5)	GI50 (LOX IMVI)	GI50 (K562)	GI50 (HT-29)
COc1ccc2c(c1)[n+]([O-])c(/C(C)=N/NC(N)=S)c(C)[n+]2[O-]	33.9 µM (inactive)	> 85.9 µM (inactive)	70.5 µM (inactive)	53.7 µM (inactive)	31 µM (inactive)	1.5 µM (inactive)	2 µM (inactive)	27.6 µM (inactive)	> 100 µM (inactive)	79.4 µM (inactive)	49.7 µM (inactive)	44.4 µM (inactive)	46.3 µM (inactive)	50.4 µM (inactive)	38.8 µM (inactive)	> 100 µM (inactive)	41.2 µM (inactive)	39.9 µM (inactive)	41.5 µM (inactive)	52.1 µM (inactive)
NNC(=O)/C(NC(=O)c1ccccc1)=C(\N)c1cccc([N+](=O)[O-])c1	> 100 µM (inactive)	> 100 µM (inactive)	> 100 µM (inactive)	> 100 µM (inactive)	> 100 µM (inactive)	> 100 µM (inactive)	> 100 µM (inactive)	> 100 µM (inactive)	> 100 µM (inactive)	> 100 µM (inactive)	> 100 µM (inactive)	> 100 µM (inactive)	> 100 µM (inactive)	> 100 µM (inactive)	> 100 µM (inactive)	> 100 µM (inactive)	> 100 µM (inactive)	> 100 µM (inactive)	> 100 µM (inactive)	> 100 µM (inactive)
CC1=C[C@]2(O)C(=O)[C@H](C)C[C@H]3[C@@H](CC[C@@](C)(O)/C=C\2C1=O)C3(C)C	19.7 µM (inactive)	34.7 µM (inactive)	25.4 µM (inactive)	35.5 µM (inactive)	13.7 µM (inactive)	> 100 µM (inactive)	16 µM (inactive)	24.8 µM (inactive)	> 56.8 µM (inactive)	33.3 µM (inactive)	62.5 µM (inactive)	21.7 µM (inactive)	20.5 µM (inactive)	19.4 µM (inactive)	16.7 µM (inactive)	60.7 µM (inactive)	21.6 µM (inactive)	17.3 µM (inactive)	> 100 µM (inactive)	28.4 µM (inactive)
Cc1ccc2[nH]c3c(C)c4cc[n+](C)cc4c(C)c3c2c1	2.84 µM (inactive)	0.67 µM (active)	3.59 µM (inactive)	0.325 µM (active)	1.03 µM (active)	5.12 µM (inactive)	2.56 µM (inactive)	3.06 µM (inactive)	2.51 µM (inactive)	0.251 µM (active)	5.19 µM (inactive)	0.41 µM (active)	0.612 µM (active)	0.374 µM (active)	0.828 µM (active)	0.499 µM (active)	1.65 µM (inactive)	5 µM (inactive)	1.41 µM (inactive)	3.33 µM (inactive)
COc1ccc(C2=NN(C(=O)c3cccnc3)C(O)(c3cc(F)c(Cl)cc3Cl)C2)cc1OC (stereo unspecified)	11.5 µM (inactive)	19.1 µM (inactive)	24.1 µM (inactive)	20.4 µM (inactive)	13.8 µM (inactive)	12.8 µM (inactive)	7.28 µM (inactive)	11.4 µM (inactive)	26.1 µM (inactive)	23.5 µM (inactive)	17.5 µM (inactive)	13.8 µM (inactive)	14.5 µM (inactive)	17.9 µM (inactive)	12.3 µM (inactive)	29.9 µM (inactive)	12.1 µM (inactive)	13.9 µM (inactive)	17.4 µM (inactive)	12.3 µM (inactive)
CC1(C)CCCOc2cccc(c2)OCCCC(C)(C)C1=O	22 µM (inactive)	26 µM (inactive)	46.2 µM (inactive)	31.7 µM (inactive)	13.3 µM (inactive)	18.1 µM (inactive)	34 µM (inactive)	16.5 µM (inactive)	33 µM (inactive)	30.8 µM (inactive)	51.4 µM (inactive)	35.2 µM (inactive)	–	27 µM (inactive)	49.3 µM (inactive)	80.7 µM (inactive)	18.4 µM (inactive)	20.7 µM (inactive)	14.8 µM (inactive)	19.8 µM (inactive)
COc1cccc2c1C(=O)c1c(O)c3c(c(O)c1C2=O)C[C@@](O)(C(C)=O)CC3S(=O)(=O)O (stereo partly specified)	> 100 µM (inactive)	> 100 µM (inactive)	> 100 µM (inactive)	> 100 µM (inactive)	> 100 µM (inactive)	> 100 µM (inactive)	> 84.1 µM (inactive)	> 100 µM (inactive)	> 100 µM (inactive)	> 50.5 µM (inactive)	> 100 µM (inactive)	> 100 µM (inactive)	> 100 µM (inactive)	> 100 µM (inactive)	> 100 µM (inactive)	> 100 µM (inactive)	> 100 µM (inactive)	> 100 µM (inactive)	> 100 µM (inactive)	> 100 µM (inactive)
Clc1ccc(C(Cc2ccccc2)c2c(Cl)nc(N3CCNCC3)nc2Cl)cc1 (stereo unspecified)	14.3 µM (inactive)	7.89 µM (inactive)	5.13 µM (inactive)	16.1 µM (inactive)	12.4 µM (inactive)	2.26 µM (inactive)	1.63 µM (inactive)	7.11 µM (inactive)	17.7 µM (inactive)	14.1 µM (inactive)	11.3 µM (inactive)	14 µM (inactive)	12.1 µM (inactive)	14.5 µM (inactive)	1.73 µM (inactive)	15.3 µM (inactive)	14.7 µM (inactive)	3.46 µM (inactive)	3.46 µM (inactive)	2.64 µM (inactive)
CC(=O)On1c(-c2ccccc2-c2nc3ccccc3n2OC(C)=O)nc2ccccc21	24.3 µM (inactive)	22.5 µM (inactive)	> 100 µM (inactive)	41.3 µM (inactive)	18.5 µM (inactive)	14.7 µM (inactive)	19.1 µM (inactive)	41.3 µM (inactive)	55.1 µM (inactive)	35.2 µM (inactive)	74.6 µM (inactive)	12.8 µM (inactive)	36.5 µM (inactive)	34.4 µM (inactive)	16.7 µM (inactive)	60.5 µM (inactive)	3.4 µM (inactive)	18.5 µM (inactive)	13.9 µM (inactive)	–
CC1=CCC2(C#N)CCC1C2O (stereo unspecified)	> 100 µM (inactive)	> 100 µM (inactive)	> 100 µM (inactive)	> 100 µM (inactive)	> 100 µM (inactive)	> 100 µM (inactive)	> 100 µM (inactive)	> 100 µM (inactive)	> 100 µM (inactive)	> 100 µM (inactive)	> 100 µM (inactive)	> 100 µM (inactive)	> 100 µM (inactive)	–	> 100 µM (inactive)	> 100 µM (inactive)	> 100 µM (inactive)	> 100 µM (inactive)	> 100 µM (inactive)	> 100 µM (inactive)
CN(NC(=O)c1ccc(Cl)cc1)C1=NCCCCN1	> 100 µM (inactive)	> 100 µM (inactive)	> 100 µM (inactive)	> 100 µM (inactive)	> 100 µM (inactive)	> 100 µM (inactive)	> 100 µM (inactive)	> 100 µM (inactive)	> 100 µM (inactive)	> 100 µM (inactive)	> 100 µM (inactive)	> 100 µM (inactive)	> 100 µM (inactive)	> 100 µM (inactive)	> 100 µM (inactive)	> 100 µM (inactive)	> 100 µM (inactive)	> 100 µM (inactive)	> 100 µM (inactive)	> 100 µM (inactive)
N#CC(Nc1cccc(C(F)(F)F)c1)c1ccccc1C(F)(F)F (stereo unspecified)	6.52 µM (inactive)	7.52 µM (inactive)	2.73 µM (inactive)	15.3 µM (inactive)	6.71 µM (inactive)	4.9 µM (inactive)	4.82 µM (inactive)	18.4 µM (inactive)	17.6 µM (inactive)	18.3 µM (inactive)	17.9 µM (inactive)	16.9 µM (inactive)	16.3 µM (inactive)	3.08 µM (inactive)	3.26 µM (inactive)	17.3 µM (inactive)	18 µM (inactive)	5.51 µM (inactive)	14.5 µM (inactive)	13.7 µM (inactive)
Cc1ccc(SC(CCC(Sc2ccc(C)cc2)Sc2ccc(C)cc2)Sc2ccc(C)cc2)cc1	> 100 µM (inactive)	> 100 µM (inactive)	> 100 µM (inactive)	> 100 µM (inactive)	> 100 µM (inactive)	> 100 µM (inactive)	> 100 µM (inactive)	> 100 µM (inactive)	> 100 µM (inactive)	> 100 µM (inactive)	> 100 µM (inactive)	> 100 µM (inactive)	> 100 µM (inactive)	> 100 µM (inactive)	> 100 µM (inactive)	> 100 µM (inactive)	> 100 µM (inactive)	> 100 µM (inactive)	> 100 µM (inactive)	–
ClC1CCC2OOC1O2 (stereo unspecified)	> 100 µM (inactive)	> 100 µM (inactive)	> 100 µM (inactive)	> 100 µM (inactive)	> 100 µM (inactive)	32.2 µM (inactive)	> 100 µM (inactive)	54 µM (inactive)	> 100 µM (inactive)	82.2 µM (inactive)	> 100 µM (inactive)	> 100 µM (inactive)	> 100 µM (inactive)	> 100 µM (inactive)	> 100 µM (inactive)	> 100 µM (inactive)	> 100 µM (inactive)	> 100 µM (inactive)	> 100 µM (inactive)	89.5 µM (inactive)
